Test results published in US11666642B2, “PDE5 compositions and methods for immunotherapy” (Obsidian Therapeutics, Inc., priority 2017, dated 2023).

Experiments:
[1] = tested on: hPDE5 mutants fused to GFP in HCT116 cells; test: Response to Sildenafil (5 or 0.5 μM) over time, MFI by FACS; format: cell-based, human
Procedure: Mean fluorescence intensity (MFI) was measured by FACS. […] The destabilizing mutation coefficient was calculated as the fold change in GFP intensity in the hPDE5 mutant constructs compared to the hPDE5 wildtype construct (OT-hPDE5N-019) in the absence of the ligand. Destabilizing mutation coefficient less than 1 are desirable. Stabilization ratios greater than 1 are desired in DDs. The results and stabilization ratios for time course experiments with 5 or 0.5 μM are presented in Table 30 and Table 31 respectively.

[2] = tested on: hPDE5 mutants fused to GFP in HCT116 cells; test: Comparative analysis of hPDE5 ligands: stabilization ratios at the highest concentrations; format: cell-based, human
Procedure: (§1) Mean fluorescence intensity (MFI) was measured by FACS. Parental HCT116 and cells expressing OT-hPDE5N-019 wildtype construct were also included as controls. […] The destabilizing mutation coefficient ratio was calculated as the fold change in GFP intensity in the hPDE5 mutant constructs compared to the hPDE5 wildtype construct (OT-hPDE5N-019) in the absence of the ligand. Destabilizing mutation coefficient ratios less than 1 are desirable. Stabilization ratios greater than 1 are desired in DDs.
as §1, with “expressing OT-hPDE5N-019 comprising hPDE5 wildtype construct” for “expressing OT-hPDE5N-019 wildtype construct”, “Destabilizing mutation co-efficient ratios less” for “Destabilizing mutation coefficient ratios less”
The response of hPDE5 combination mutants to increasing doses of Tadalafil was tested. HCT116 cells transduced with hPDE5 constructs were treated with Tadalafil for 24 hours at doses ranging from 0.14 to 100 μM. Mean fluorescence intensity (MFI) was measured by FACS. Parental HCT116 and cells expressing OT-hPDE5N-019 comprising hPDE5 wildtype construct were also included as controls. The response of the combination mutants to Tadalafil was compared to the response of the single mutant construct OT-hPDE5N-020. The stabilization ratio (SR) was calculated as the fold change in GFP intensity in Tadalafil treated samples compared to treatment with DMSO (i.e. in the absence of ligand) with the same construct. The destabilizing mutation coefficient was calculated as the fold change in GFP intensity in the hPDE5 mutant constructs compared to the hPDE5 wildtype construct (OT-hPDE5N-0019) in the absence of the ligand. Destabilizing mutation coefficient less than 1 are desirable. Stabilization ratios greater than 1 are desired in DDs.

## OT-hPDE5N-020: construct consisting of E535-Q860 amino acids of hPDE5 with the R732L mutant, SG linker, AcGFP; single mutant construct
[1]; 0-72 hours, HCT116
  stabilization ratios over time, Sildenafil 0.5 μM: greater stabilization
[1]; Sildenafil 0.5 μM, 0 hours
  MFI: 2727
[1]; Sildenafil 0.5 μM, 4 hours
  MFI: 4127
  Stabilization ratio: 1.51
[1]; Sildenafil 0.5 μM, 8 hours
  MFI: 5461
  Stabilization ratio: 2.00
[1]; Sildenafil 0.5 μM, 12 hours
  MFI: 9058
  Stabilization ratio: 3.32
[1]; Sildenafil 0.5 μM, 16 hours
  MFI: 14469
  Stabilization ratio: 5.31
[1]; Sildenafil 0.5 μM, 20 hours
  MFI: 16142
  Stabilization ratio: 5.92
[1]; Sildenafil 0.5 μM, 24 hours
  MFI: 20524
  Stabilization ratio: 7.53
[1]; Sildenafil 0.5 μM, 48 hours
  MFI: 45754
  Stabilization ratio: 16.78
[1]; Sildenafil 0.5 μM, 72 hours
  MFI: 58786
  Stabilization ratio: 21.56
[1]; Sildenafil 5 μM, 0 hours
  MFI: 2668
[1]; Sildenafil 5 μM, 4 hours
  MFI: 4236
  Stabilization ratio: 1.59
[1]; Sildenafil 5 μM, 8 hours
  MFI: 5672
  Stabilization ratio: 2.13
[1]; Sildenafil 5 μM, 12 hours
  MFI: 9097
  Stabilization ratio: 3.41
[1]; Sildenafil 5 μM, 16 hours
  MFI: 14855
  Stabilization ratio: 5.57
[1]; Sildenafil 5 μM, 20 hours
  MFI: 15529
  Stabilization ratio: 5.82
[1]; Sildenafil 5 μM, 24 hours
  MFI: 20955
  Stabilization ratio: 7.85
[1]; Sildenafil 5 μM, 48 hours
  MFI: 46604
  Stabilization ratio: 17.47
[1]; Sildenafil 5 μM, 72 hours
  MFI: 58479
  Stabilization ratio: 21.92
[2]; Sildenafil (30 μM)
  Stabilization ratio: 7.78
[2]; Tadalafil (100 μM)
  Stabilization ratio: 8.94
[2]; Vardenafil (30 μM)
  Stabilization ratio: 9.62
